Source: ChEMBL document CHEMBL4229414, “Design and synthesis of bridged piperidine and piperazine isosteres” (Bioorg Med Chem Lett, 2018)

What was measured:
[1] = biological target: D(2) dopamine receptor (Homo sapiens) (UniProt P14416); assay: Agonist activity at human D2L receptor expressed in CHOK1 cells assessed as inhibition of receptor response at 0.1 uM by calcium flux assay relative to control; assay type: functional, cell-based
[2] = biological target: D(2) dopamine receptor (Homo sapiens) (UniProt P14416); assay: Agonist activity at human D2L receptor expressed in CHOK1 cells assessed as inhibition of receptor response at 10 uM by calcium flux assay relative to control; assay type: functional, cell-based
[3] = biological target: D(2) dopamine receptor (Homo sapiens) (UniProt P14416); assay: Antagonist activity at human D2L receptor expressed in CHOK1 cells assessed as inhibition of dopamine-induced calcium flux at 0.1 uM by fluorescence assay relative to control; assay type: functional, cell-based
[4] = biological target: D(2) dopamine receptor (Homo sapiens) (UniProt P14416); assay: Antagonist activity at human D2L receptor expressed in CHOK1 cells assessed as inhibition of dopamine-induced calcium flux at 10 uM by fluorescence assay relative to control; assay type: functional, cell-based
[5] = species: Homo sapiens; assay: Agonist activity at recombinant human D4.4 expressed in CHOK1 cells assessed as inhibition of receptor response at 0.1 uM by HTRF based cAMP assay relative to control; assay type: cell-based
[6] = species: Homo sapiens; assay: Agonist activity at recombinant human D4.4 expressed in CHOK1 cells assessed as inhibition of receptor response at 10 uM by HTRF based cAMP assay relative to control; assay type: cell-based
[7] = biological target: T1, hERG (KCNH2) (Homo sapiens, UniProt Q12809); assay: (§1) Inhibition of human ERG at 1 uM relative to control
[8] = biological target: T1, hERG (KCNH2); assay: (§2) Inhibition of human ERG at 3 uM relative to control
[9] = biological target: T1, hERG (KCNH2); assay: (§3) Inhibition of human ERG at 10 uM relative to control
[10] = Passive permeability in human Caco2 cells; assay type: ADME, cell-based; details: caco-2
[11] = Efflux ratio of permeability in human Caco2 cells; assay type: ADME, cell-based; details: caco-2
[12] = Stability in human microsomes; assay type: ADME, Microsome; further: time not given here
[13] = Stability in rat microsomes; assay type: ADME, Microsome; further: time not given here
[14] = Stability in mouse microsomes; assay type: ADME, Microsome; further: time not given here
[15] = biological target: T2, Voltage-gated inwardly rectifying potassium channel KCNH2 (Homo sapiens, UniProt Q12809); assay: as §1; details: 1 µM
[16] = biological target: T2, Voltage-gated inwardly rectifying potassium channel KCNH2; assay: as §2; details: 3 µM
[17] = biological target: T2, Voltage-gated inwardly rectifying potassium channel KCNH2; assay: as §3; details: 10 µM

T1 sequence (Q12809 whole entry): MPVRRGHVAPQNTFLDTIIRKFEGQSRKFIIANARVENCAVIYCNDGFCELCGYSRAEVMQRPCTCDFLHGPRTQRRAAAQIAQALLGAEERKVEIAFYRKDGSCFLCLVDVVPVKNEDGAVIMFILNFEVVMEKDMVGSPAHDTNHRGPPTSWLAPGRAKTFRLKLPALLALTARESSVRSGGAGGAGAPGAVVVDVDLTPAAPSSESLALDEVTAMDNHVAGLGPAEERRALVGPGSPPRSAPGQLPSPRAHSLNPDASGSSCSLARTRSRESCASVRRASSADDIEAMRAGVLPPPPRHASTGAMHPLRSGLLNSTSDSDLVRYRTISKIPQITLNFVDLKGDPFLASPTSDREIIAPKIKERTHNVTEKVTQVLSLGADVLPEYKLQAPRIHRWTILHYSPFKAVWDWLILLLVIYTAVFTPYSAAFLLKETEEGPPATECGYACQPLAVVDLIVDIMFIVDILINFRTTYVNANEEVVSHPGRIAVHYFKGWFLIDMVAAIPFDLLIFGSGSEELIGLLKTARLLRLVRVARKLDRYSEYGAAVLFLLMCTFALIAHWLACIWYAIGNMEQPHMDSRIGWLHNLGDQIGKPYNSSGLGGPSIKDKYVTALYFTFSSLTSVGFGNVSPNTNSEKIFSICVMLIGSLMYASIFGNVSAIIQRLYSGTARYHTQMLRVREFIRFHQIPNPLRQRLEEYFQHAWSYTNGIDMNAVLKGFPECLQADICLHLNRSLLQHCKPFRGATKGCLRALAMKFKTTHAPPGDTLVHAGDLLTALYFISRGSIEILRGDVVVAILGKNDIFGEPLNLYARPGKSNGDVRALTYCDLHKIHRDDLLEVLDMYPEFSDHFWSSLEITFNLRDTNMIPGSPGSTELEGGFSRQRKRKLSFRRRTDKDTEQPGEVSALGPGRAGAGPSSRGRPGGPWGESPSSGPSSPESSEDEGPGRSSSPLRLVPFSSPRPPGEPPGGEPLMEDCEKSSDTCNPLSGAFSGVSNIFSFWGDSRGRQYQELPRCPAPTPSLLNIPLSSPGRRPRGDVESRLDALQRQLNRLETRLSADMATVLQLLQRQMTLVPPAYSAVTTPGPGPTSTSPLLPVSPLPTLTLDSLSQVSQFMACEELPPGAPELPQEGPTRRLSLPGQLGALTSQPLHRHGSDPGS
T2 sequence (Q12809 whole entry): as above
Sequence of D(2) dopamine receptor (Homo sapiens) (P14416 whole entry): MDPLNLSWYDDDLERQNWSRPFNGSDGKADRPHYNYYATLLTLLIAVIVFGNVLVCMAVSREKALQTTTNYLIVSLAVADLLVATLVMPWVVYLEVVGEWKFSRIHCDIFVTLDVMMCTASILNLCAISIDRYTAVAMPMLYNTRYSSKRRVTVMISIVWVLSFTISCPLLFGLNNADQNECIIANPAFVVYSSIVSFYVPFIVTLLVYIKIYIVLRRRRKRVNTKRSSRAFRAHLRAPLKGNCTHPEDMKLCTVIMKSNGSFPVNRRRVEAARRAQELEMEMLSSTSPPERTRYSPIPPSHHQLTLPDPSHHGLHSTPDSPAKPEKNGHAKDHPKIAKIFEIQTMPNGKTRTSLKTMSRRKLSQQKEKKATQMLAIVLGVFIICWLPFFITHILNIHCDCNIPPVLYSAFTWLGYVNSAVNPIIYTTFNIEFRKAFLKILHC

Row | SMILES | inhibition [1] [%] | inhibition [2] [%] | inhibition [3] [%] | inhibition [4] [%] | inhibition [5] [%] | inhibition [6] [%] | inhibition at 1 µM [7] [%] | inhibition at 3 µM [8] [%] | inhibition at 10 µM [9] [%] | permeability [10] [%] | efflux ratio [11] | Stability [12] [%] | Stability [13] [%] | Stability [14] [%] | inhibition (INH) [15] [%] | inhibition (INH) [16] [%] | inhibition (INH) [17] [%] | Ratio [11]
1 | CCCN1CCC(c2ccccc2OC)CC1 | 52 | 99 | -7 | 14 | 9 | 12 | 2 | 5.5 | 14 | 100 | 1 | 86 | 4 | 30 |  |  |  | 
2 | CCCN1C[C@H]2OC[C@@H]1C[C@]2(O)c1ccccc1OC | 6 | 3 | 12 | 16 | 6 | -6 | 4 | 5 | 14 | 100 | 0.6 | 100 | 15 | 55 |  |  |  | 
3 | CCCN1[C@@H]2COC[C@H]1CN(c1ccccc1OC)C2 | 3 | 19 | 9 | 5 | 3 | 3 | 2 | 2 | 12 | 100 | 0.9 | 70 | 4 | 18 |  |  |  | 
4 | CCCN1C[C@H]2OC[C@@H]1C[C@@H]2c1ccccc1OC | 25 | 16 |  |  |  |  | 0 | 3 | 15 | 100 | 0.8 | 100 | 3 | 4 |  |  |  | 
5 | CCCN1C[C@H]2OC[C@@H]1C[C@H]2c1ccccc1OC | 4 | 7 | -6 | 13 | 5 | 21 | 3 | 9 | 22 | 100 | 0.8 | 41 | 3 | 9 |  |  |  | 
6 | CCCN1C[C@H]2OC[C@@H]1C[C@@]2(O)c1ccccc1OC | 25 | 16 | 4 | 4 | 4 | 15 | 3 | 4 | 6 | 100 | 3 | 66 | 53 | 18 |  |  |  | 
7 | CCCN1CCN(c2ccccc2OC)CC1 | 50 | 99 |  | -1 | 9 | 12 | 8 | 16 | 41 | 100 | 1.1 | 63 | 2 | 2 |  |  |  | 
8 | CCCN1[C@H]2CC[C@H]1CC(c1cccc(OC)c1)C2 (relative stereo) | 9 | 32 | 12 | 13 | 4 | 16 | 30 | 54 | 81 | 100 | 2.6 | 4 | 2 | 3 |  |  |  | 
9 | CCCN1[C@H]2CC[C@H]1CC(c1ccc(OC)c(OC)c1)C2 (relative stereo) | 6 | 20 | 8 | 11 | -1 | 17 | 36 | 62 | 85 | 99 | 3.4 | 50 | 4 | 21 |  |  |  | 
10 | CCCN1[C@H]2CC[C@H]1CC(c1ccc(OC)cc1)C2 (relative stereo) | -1 | 40 | 0 | 9 | 9 | 21 | 58 | 78 | 93 | 100 | 3 | 8 | 2 | 5 |  |  |  | 
11 | CCCN1[C@H]2CC[C@H]1CC(O)(c1ccccc1OC)C2 (relative stereo) |  | -8 |  |  |  |  | 7 | 19 | 46 | 100 | 1.2 | 100 | 12 | 54 |  |  |  | 
12 | CCCN1[C@H]2CC[C@H]1CC(c1cc(OC)c(OC)c(OC)c1)C2 (relative stereo) | 0 | 4 | 12 | 8 |  | -1 | 20 | 40 | 66 | 99 | 5.6 | 100 | 4 | 5 |  |  |  | 
13 | CCCN1[C@H]2CC[C@H]1CC(c1ccccc1OC)C2 (relative stereo; 4) [listing 1 of 2 here] |  |  |  |  |  |  |  |  |  | 99.7 |  | 62 |  | 6 | 10 | 25 | 56.5 | 4.1
14 | CCCN1[C@H]2CC[C@H]1CC(c1ccccc1OC)C2 (relative stereo; 4) [listing 2 of 2 here] | 8 | 0 | 19 | 22 | 10 | 11 |  |  |  |  |  |  |  |  |  |  |  | 
15 | CCCN1[C@H]2CC[C@H]1CC(c1ccccc1OC)C2 (relative stereo; 8a) [listing 1 of 2 here] |  |  |  |  |  |  |  |  | 74 | 100 | 2.9 | 25 | 2 | 3 | 22 | 46 |  | 
16 | CCCN1[C@H]2CC[C@H]1CC(c1ccccc1OC)C2 (relative stereo; 8a) [listing 2 of 2 here] | 2 | 35 | 14 | 29 | -3 |  |  |  |  |  |  |  |  |  |  |  |  | 
17 | CCCN1[C@H]2COC[C@H]1CC(c1ccccc1OC)C2 (relative stereo; 16) [listing 1 of 2 here] |  |  |  |  |  |  |  |  |  |  |  | 35 |  | 7 | 6 | 17 | 39 | 3.1
18 | CCCN1[C@H]2COC[C@H]1CC(c1ccccc1OC)C2 (relative stereo; 16) [listing 2 of 2 here] | 4 | 11 | 21 | 34 | 3 | 20 |  |  |  |  |  |  |  |  |  |  |  | 
19 | CCCN1[C@H]2COC[C@H]1CC(c1ccccc1OC)C2 (relative stereo; 20) [listing 1 of 2 here] |  |  |  |  |  |  |  | 34 |  | 100 | 2.3 | 42 | 1 | 2 | 17 |  | 64 | 
20 | CCCN1[C@H]2COC[C@H]1CC(c1ccccc1OC)C2 (relative stereo; 20) [listing 2 of 2 here] | 22 | 30 | 10 | 12 | 14 |  |  |  |  |  |  |  |  |  |  |  |  | 
